# Data taken from ChEMBL document CHEMBL1201862, “PubChem BioAssay data set” (2004).
# Where a name gives a salt, the structure may show the parent alone. Active and inactive are the calls of the source.
# Tests used:
# Cytochrome P450 3A4 [1] = biological target: T1, Cytochrome P450 3A4 (Homo sapiens, UniProt P08684);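 also: CYP3A4 tested as one member of a cytochrome P450 panel screen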
# Cysteine protease ATG4B = biological target: T2, Cysteine protease ATG4B (Homo sapiens, UniProt Q9Y4P1); type: functional;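 also: Fluorescence-based dose-response confirmation assay measuring inhibition of ATG4B activity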
# T2 sequence (Q9Y4P1 whole entry): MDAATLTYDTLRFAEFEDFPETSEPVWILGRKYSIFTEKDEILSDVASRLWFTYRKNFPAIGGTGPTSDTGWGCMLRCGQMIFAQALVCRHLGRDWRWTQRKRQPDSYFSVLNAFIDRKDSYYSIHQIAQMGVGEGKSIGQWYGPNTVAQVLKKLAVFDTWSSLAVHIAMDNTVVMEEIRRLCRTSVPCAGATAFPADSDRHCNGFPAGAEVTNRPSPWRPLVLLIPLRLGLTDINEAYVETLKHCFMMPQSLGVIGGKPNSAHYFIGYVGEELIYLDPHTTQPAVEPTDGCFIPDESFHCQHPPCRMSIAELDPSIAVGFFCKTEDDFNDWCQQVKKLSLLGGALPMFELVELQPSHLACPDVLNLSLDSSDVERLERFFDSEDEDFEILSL
# Phospholipase A2 = Phospholipase A2 (Homo sapiens, UniProt P04054); type: functional;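 also: confirmatory dose-response counterscreen on phospholipase A2, testing hits that came from an ultra-high-throughput screen for ATG4B inhibitors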
# Phospholipase A2, sequence (P04054 whole entry): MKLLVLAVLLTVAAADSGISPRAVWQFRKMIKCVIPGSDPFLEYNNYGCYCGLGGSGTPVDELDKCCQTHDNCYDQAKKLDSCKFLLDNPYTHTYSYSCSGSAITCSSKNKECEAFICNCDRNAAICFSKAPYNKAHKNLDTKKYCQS
# Troponin, cardiac muscle = Troponin, cardiac muscle (Homo sapiens, UniProt P19429+P45379+P63316); test: Fluorescence-based biochemical high throughput dose response assay for activators of the calcium sensitivity of cardiac Regulated Thin Filaments (RTF). [Related pubchem assays (depositor defined):AID493008, AID493018, AID504382, AID504383]; type: protein-complex assay
# SUMO-activating enzyme = SUMO-activating enzyme (Homo sapiens, UniProt Q9UBT2); test: SUMOylation inhibitor hit validation, confirmation, SUMOylation inhibitor project, biochemical, AlphaScreen (AID 2018); type: functional
# SUMO-activating enzyme, sequence (Q9UBE0 whole entry): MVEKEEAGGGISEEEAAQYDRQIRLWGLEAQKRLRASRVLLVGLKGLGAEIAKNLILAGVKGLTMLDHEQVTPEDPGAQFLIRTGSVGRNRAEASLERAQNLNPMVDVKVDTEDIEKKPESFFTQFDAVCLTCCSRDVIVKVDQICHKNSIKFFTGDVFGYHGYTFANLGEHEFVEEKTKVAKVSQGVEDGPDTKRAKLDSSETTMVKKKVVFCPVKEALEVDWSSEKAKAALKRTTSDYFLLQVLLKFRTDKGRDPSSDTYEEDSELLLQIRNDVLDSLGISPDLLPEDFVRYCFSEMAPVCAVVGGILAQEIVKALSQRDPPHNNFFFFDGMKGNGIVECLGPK
# SUMO-activating enzyme, sequence (Q9UBT2 whole entry): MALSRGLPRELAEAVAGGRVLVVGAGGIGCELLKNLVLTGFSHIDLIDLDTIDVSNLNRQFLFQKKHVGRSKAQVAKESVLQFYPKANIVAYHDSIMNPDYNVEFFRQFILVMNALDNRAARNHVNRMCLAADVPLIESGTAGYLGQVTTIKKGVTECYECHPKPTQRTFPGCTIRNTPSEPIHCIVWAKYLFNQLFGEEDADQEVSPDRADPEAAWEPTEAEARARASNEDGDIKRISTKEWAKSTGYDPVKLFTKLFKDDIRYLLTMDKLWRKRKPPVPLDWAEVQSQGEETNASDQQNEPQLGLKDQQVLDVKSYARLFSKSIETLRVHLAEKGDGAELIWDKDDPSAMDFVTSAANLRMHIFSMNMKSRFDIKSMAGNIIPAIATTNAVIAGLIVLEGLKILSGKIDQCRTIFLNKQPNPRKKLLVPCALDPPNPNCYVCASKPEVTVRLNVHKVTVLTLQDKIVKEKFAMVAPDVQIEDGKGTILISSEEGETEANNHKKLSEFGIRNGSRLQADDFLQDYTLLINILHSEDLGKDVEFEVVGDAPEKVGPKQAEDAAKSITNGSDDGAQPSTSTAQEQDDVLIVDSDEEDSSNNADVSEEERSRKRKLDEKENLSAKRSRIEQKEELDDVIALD
# [2] = C. albicans growth with fluconazole, confirmation, fluorescence, retest (AID 2467); type: functional, cell-based
# [3] = biological target: Glucose-6-phosphate 1-dehydrogenase (Homo sapiens, UniProt P11413); test: human G6PD enzyme inhibitors, dose response, selectivity assay for P. falciparum G6PD inhibitor project, biochemical, fluorescence (AID 504792); type: functional
# Glucose-6-phosphate 1-dehydrogenase, sequence (P11413 whole entry): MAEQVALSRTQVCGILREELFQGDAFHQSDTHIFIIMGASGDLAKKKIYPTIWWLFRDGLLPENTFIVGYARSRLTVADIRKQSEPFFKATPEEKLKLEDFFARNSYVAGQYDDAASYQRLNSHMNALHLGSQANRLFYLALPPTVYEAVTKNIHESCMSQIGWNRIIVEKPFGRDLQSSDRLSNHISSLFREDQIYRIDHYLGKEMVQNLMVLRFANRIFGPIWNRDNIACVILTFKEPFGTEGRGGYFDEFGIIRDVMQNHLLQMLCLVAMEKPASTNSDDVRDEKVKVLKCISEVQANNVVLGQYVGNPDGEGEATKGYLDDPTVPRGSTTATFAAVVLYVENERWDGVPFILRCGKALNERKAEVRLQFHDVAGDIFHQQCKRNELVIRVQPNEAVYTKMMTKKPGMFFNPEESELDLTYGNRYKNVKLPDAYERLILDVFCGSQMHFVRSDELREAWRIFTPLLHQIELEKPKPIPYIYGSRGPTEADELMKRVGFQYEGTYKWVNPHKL
# [4] = NIH-3T3 fibroblast cytotoxicity, dose response, cytotoxicity control, cell-based, fluorescence, Alamar Blue, secondary assay (AID 2327); type: functional;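 also: NIH-3T3 mouse fibroblasts cultured with fluconazole at 8 µg/mL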
# [5] = Luminescence Cell-Based Dose Retest to Confirm Inhibitors of Cancer Stem Cells. [Related pubchem assays (depositor defined):AID2717, AID2721]; type: functional; conditions: Homo sapiens
# [6] = inhibitors of intracellular T. cruzi replication, confirmation, NIH3T3 host cells, beta-gal luminescence (AID 2044); type: functional, cell-based;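 also: intracellular parasites grown in NIH/3T3 mouse fibroblasts as host cells; luminescent beta-galactosidase reporter signal from transgenic T. cruzi replicating inside host cells; inhibitors lower the luminescence signal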
# [7] = cytotoxicity toward NIH3T3 fibroblasts, dose response, counter-screen, cell-based, ATP luminescence, mouse fibroblasts (AID 2010); type: functional;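 also: cells exposed to compound for about 90 hours before reading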
# [8] = biological target: Beta-2 adrenergic receptor (Homo sapiens, UniProt P07550); test: beta2AR agonists driving receptor internalization, dose response, cell-based, FAP fluorogen, flow cytometry, cherry pick 1 (AID 588763); type: functional
# Beta-2 adrenergic receptor, sequence (P07550 whole entry): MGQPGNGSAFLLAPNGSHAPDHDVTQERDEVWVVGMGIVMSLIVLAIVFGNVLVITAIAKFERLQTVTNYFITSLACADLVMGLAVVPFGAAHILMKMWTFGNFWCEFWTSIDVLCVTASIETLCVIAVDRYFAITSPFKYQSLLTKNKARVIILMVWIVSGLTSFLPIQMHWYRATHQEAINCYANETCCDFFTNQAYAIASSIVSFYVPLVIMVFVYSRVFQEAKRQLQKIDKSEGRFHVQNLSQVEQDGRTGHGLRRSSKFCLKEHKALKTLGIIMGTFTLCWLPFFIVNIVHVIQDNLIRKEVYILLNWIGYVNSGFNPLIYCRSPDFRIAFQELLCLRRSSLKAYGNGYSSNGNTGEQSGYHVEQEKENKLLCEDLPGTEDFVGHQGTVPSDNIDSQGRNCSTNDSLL
# [9] = biological target: Voltage-gated inwardly rectifying potassium channel KCNH2 (Homo sapiens, UniProt Q12809); conditions: Potency;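 also: confirmatory quantitative high-throughput screen measuring inhibition of hERG channel activity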
# Voltage-gated inwardly rectifying potassium channel KCNH2, sequence (Q12809 whole entry): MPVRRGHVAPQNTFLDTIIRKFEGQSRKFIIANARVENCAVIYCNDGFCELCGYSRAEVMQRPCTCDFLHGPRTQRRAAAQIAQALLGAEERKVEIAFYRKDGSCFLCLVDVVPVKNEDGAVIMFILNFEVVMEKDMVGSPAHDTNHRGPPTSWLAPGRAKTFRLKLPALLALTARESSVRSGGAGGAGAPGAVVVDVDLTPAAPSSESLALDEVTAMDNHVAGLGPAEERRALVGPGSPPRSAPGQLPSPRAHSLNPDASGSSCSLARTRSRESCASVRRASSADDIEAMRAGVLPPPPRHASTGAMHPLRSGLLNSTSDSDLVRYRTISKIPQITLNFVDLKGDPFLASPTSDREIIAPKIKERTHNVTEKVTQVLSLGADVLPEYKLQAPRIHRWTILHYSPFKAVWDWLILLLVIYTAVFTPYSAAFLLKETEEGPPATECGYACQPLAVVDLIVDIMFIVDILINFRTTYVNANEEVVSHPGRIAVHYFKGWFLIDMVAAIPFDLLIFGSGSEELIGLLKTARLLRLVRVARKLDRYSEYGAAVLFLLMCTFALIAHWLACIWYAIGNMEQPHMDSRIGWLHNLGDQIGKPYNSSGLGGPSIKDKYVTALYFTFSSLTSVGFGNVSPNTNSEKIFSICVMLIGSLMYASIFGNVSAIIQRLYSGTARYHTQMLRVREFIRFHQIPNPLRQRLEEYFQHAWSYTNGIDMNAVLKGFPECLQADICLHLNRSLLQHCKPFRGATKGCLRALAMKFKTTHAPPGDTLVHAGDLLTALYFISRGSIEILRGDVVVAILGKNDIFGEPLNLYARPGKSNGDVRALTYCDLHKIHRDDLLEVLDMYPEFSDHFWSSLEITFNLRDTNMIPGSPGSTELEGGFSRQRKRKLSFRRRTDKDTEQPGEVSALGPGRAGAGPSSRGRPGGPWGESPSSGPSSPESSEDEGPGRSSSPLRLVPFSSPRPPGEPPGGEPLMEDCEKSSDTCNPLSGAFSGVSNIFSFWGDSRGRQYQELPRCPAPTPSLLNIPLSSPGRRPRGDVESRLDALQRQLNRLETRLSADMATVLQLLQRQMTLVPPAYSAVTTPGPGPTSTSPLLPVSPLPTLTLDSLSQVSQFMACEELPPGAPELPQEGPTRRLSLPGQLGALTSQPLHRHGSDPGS
# Vero = test: cells; type: functional; conditions: Chlorocebus sabaeus
# Cytochrome P450 3A4 [10] = biological target: T1, Cytochrome P450 3A4; remark: listed apart in the source
# [11] = biological target: T3, Type-1 angiotensin II receptor (Homo sapiens, UniProt P30556); test: AT1 receptor antagonists, dose response, selectivity assay for APJ receptor antagonist project, cell-based, uHTS hits (AID 463214); type: functional;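 also: antagonist potency against angiotensin II stimulated AT1 response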
# T3 sequence (P30556 whole entry): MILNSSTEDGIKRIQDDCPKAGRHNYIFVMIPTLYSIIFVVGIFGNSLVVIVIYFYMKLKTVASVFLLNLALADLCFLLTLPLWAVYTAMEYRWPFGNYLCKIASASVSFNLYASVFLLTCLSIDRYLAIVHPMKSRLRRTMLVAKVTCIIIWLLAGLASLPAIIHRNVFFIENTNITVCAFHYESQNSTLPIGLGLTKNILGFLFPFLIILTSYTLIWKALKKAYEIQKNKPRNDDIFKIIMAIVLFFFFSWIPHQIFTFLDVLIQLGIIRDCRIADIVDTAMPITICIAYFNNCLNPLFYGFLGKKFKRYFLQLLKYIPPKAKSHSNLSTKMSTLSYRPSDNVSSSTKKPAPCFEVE
# Beta-galactosidase = Beta-galactosidase (Escherichia coli, UniProt Q8VNN2); test: PubChem AID 485352; type: functional
# Beta-galactosidase, sequence (Q8VNN2 whole entry): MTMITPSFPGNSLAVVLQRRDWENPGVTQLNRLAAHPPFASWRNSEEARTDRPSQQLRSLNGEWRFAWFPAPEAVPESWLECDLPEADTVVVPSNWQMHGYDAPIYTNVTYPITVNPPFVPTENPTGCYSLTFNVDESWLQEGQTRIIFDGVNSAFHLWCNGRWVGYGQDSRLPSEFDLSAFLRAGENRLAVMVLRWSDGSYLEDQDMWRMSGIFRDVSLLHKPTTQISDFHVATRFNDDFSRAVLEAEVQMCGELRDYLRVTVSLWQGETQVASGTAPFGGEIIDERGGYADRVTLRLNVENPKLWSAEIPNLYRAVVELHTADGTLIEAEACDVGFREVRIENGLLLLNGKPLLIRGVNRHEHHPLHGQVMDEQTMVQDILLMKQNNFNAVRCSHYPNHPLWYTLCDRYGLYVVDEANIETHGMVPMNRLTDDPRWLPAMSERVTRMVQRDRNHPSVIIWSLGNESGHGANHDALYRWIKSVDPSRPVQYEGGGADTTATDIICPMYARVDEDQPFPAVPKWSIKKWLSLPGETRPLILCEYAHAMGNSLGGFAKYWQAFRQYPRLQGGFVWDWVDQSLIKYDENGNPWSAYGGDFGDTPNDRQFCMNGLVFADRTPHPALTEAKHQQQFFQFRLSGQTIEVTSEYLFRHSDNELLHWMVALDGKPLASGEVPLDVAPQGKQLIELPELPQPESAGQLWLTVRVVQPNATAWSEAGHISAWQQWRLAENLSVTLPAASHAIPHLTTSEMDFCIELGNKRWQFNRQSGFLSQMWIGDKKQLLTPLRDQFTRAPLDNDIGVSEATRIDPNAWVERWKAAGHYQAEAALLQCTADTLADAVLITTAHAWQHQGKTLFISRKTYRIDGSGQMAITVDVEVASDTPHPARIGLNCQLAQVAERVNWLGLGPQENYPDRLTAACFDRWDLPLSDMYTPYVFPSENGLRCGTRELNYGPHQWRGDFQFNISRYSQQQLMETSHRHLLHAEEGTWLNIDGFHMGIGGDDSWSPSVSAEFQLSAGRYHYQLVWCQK
# [12] = biological target: T4, High affinity choline transporter 1 (Homo sapiens, UniProt Q9GZV3); test: CHT inhibitors, dose response, cell-based, 5-point CRC, membrane potential dye (AID 504840); type: functional
# T4 sequence (Q9GZV3 whole entry): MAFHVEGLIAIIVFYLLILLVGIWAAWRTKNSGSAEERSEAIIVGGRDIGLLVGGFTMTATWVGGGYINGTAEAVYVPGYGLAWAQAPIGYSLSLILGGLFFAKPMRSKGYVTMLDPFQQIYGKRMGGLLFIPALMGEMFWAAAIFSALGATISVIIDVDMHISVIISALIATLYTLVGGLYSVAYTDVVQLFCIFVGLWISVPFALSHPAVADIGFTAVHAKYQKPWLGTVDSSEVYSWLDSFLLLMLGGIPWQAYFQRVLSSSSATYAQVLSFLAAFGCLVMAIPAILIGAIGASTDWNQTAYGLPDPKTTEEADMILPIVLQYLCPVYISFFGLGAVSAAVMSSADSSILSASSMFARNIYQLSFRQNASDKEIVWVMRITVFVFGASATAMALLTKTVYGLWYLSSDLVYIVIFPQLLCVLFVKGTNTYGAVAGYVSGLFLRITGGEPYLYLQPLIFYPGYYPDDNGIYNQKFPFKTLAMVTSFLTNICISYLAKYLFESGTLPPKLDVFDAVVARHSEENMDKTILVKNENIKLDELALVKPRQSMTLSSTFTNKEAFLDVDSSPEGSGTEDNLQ
# H9c2 = test: cells; type: functional, cell-based; conditions: Rattus norvegicus, H9c2, Myocardium;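 also: confirmatory concentration-response retest of ultra-high-throughput screening hits for modulation of myocardial damage; cell death induced by hydrogen peroxide oxidative stress; compound pretreatment for 60 min then peroxide exposure for 2 h; potency is for protecting the cells against peroxide damage rather than for killing them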
# HEK293 [13] = test: cells; conditions: Homo sapiens
# HEK293 [14] = test: cells; conditions: Homo sapiens; remark: listed apart in the source
# Melanocortin receptor 4 = Melanocortin receptor 4 (Homo sapiens, UniProt P32245); test: MC4R antagonist potency on cAMP, dose response, cell-based, TR-FRET, biased antagonists (AID 602298); type: functional;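 also: antagonist potency against agonist-stimulated cAMP production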
# [15] = nonselective inhibitors of cellular cAMP signaling, dose response, counter-screen for MC4R biased antagonist project, cell-based, TR-FRET cAMP detection (AID 602305); type: functional;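 also: U2OS cells stimulated with forskolin near its EC80 as the cAMP inducer; potency is for inhibition of forskolin-stimulated cAMP signaling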
# H4 = test: Luminescence Cell-Based Dose Response HTS to Identify Activators of 5'UTR Stem-Loop Driven Prion Protein mRNA Translation in H4 Neuroglioblastoma Cells. [Related pubchem assays: 1829 (Project Summary), 1814 (Primary HTS)]; type: functional; conditions: Homo sapiens
# [16] = Luminescence Cell-Based Dose Response HTS to Identify Activators of Luciferase Translation or Activity in H4 […] Cells. [Related pubchem assays: 1829 (Project Summary), 1814 (Primary HTS)]; type: functional
# [17] = Luminescence Cell-Based Dose Confirmation HTS to Identify Activators of 5'UTR Stem-Loop Driven Alpha-Synuclein mRNA Translation in H4 Neuroglioblastoma Cells. [Related pubchem assays: 1829 (Project Summary), 1814 (Primary HTS)]; type: functional
# [18] = THP-1 cell cytotoxicity, dose response, cytotoxicity control for non-replicating M. tuberculosis project (AID 489025); type: functional
# cells [19] = type: functional, cell-based
# cells [20] = type: functional, cell-based; remark: listed apart in the source
# [21] = biological target: G-protein coupled receptor 55 (Homo sapiens, UniProt Q9Y2T6); test: GPR55 antagonists blocking LPI-driven arrestin recruitment, primary screen, imaging, U2OS, beta-arrestin-GFP, LPI agonist (AID 2013); type: functional;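 also: antagonist potency measured as reduced agonist-driven arrestin aggregation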
# T1 sequence (P08684 whole entry): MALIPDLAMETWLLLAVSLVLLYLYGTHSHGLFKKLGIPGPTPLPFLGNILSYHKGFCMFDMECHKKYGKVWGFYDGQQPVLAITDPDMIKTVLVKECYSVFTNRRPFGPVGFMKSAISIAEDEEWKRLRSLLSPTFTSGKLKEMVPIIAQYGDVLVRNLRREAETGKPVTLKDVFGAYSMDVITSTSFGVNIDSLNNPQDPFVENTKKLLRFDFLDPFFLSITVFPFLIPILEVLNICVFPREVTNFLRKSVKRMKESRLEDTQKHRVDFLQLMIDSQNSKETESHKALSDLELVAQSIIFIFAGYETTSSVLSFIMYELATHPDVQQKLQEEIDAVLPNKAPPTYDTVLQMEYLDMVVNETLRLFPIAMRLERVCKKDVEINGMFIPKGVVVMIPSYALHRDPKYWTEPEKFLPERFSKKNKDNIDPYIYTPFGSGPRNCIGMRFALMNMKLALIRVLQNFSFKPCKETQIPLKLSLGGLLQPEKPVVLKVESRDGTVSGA
structure (smiles),measurement,setting,value
N#Cc1ccc(CN2CC3(CCN(C(=O)c4cccc(F)c4)CC3)C2)cc1,AC50,Cytochrome P450 3A4 [1],inconclusive
Nc1c(N2CCN(c3ccccc3)CC2)c2ccccc2oc1=O,IC50,Cysteine protease ATG4B,20.4 µM (inactive)
same,IC50,Phospholipase A2,12.9 µM (active)
CCOC(=O)c1cnc(-c2ccccc2)nc1Oc1ccccc1,AC50,Cytochrome P450 3A4 [1],inconclusive
Cc1ccc(N2C(=O)NC(=O)/C(=C/C=C/Nc3ccccc3)C2=O)cc1,EC50,"Troponin, cardiac muscle",5.48 µM (active)
O=C(c1ccc2c(c1)nc(S)n1c3ccccc3nc21)N1CCN(c2ncccn2)CC1,IC50,SUMO-activating enzyme,50.6 µM (active)
CCc1cc(-c2[nH]nc(C)c2-c2ccccc2Cl)c(O)cc1OC,EC50,[2],> 38 µM (not active)
same,IC50,[3],> 80 µM (inactive)
same,EC50,[4],6.06 µM (inconclusive)
same,AC50,[5],4.42 µM (active)
Cc1nn(-c2ccccc2)c(Cl)c1/C=N/Nc1nc2ccccc2n1C,IC50,[3],> 80 µM (inactive)
same,EC50,[6],1.94 µM (active)
same,EC50,[7],> 60 µM (not active)
CC1=C(C#N)C(c2cn(-c3ccccc3)nc2-c2cccs2)C(C#N)=C(C)N1,EC50,[8],0.327 µM (inactive)
O=[N+]([O-])c1ccccc1-c1ccccc1,AC50,[9],39.8 µM (inconclusive)
CN(C)CCNC(=O)COc1ccc(C23CC4CC(CC(C4)C2)C3)cc1,EC50,[6],1.83 µM (active)
same,EC50,[7],> 60 µM (inconclusive)
same,CC50,Vero,18.5 µM (active)
same,AC50,[5],4.95 µM (active)
CCCCC(=O)Nc1ccc(C(=O)N(CC)c2ccccc2C)cc1,EC50,[8],17.5 µM (inactive)
CCOC(=O)c1cnc2ccc(C)cc2c1Sc1ccccc1C(=O)OC,IC50,[3],> 80 µM (inactive)
same,EC50,[6],4.01 µM (active)
same,EC50,[7],> 60 µM (not active)
same,AC50,Cytochrome P450 3A4 [10],39.8 µM (inconclusive)
CCN(CC)c1nc(C)c(C(S)=Nc2cc([N+](=O)[O-])ccc2Cl)s1,IC50,[11],> 40 µM (not active)
same,EC50,Beta-galactosidase,24.8 µM (active)
Cc1cccc(/N=C/c2cc(Br)cc(Cl)c2O)c1,IC50,[12],13.3 µM (active)
same,IC50,H9c2,> 79 µM (inactive)
same,IC50,Cysteine protease ATG4B,8.52 µM (active)
same,IC50,Phospholipase A2,12.1 µM (active)
CNCC(O)c1ccc(OC(=O)C(C)(C)C)c(OC(=O)C(C)(C)C)c1 (configuration not stated) [DIPIVEFRIN HYDROCHLORIDE],EC50,[8],7.13 µM (active)
COc1cc2c(cc1OC)-c1nnc(-c3cccs3)n1C(C)(C)C2,EC50,HEK293 [13],> 59.6 µM (inactive)
same,EC50,HEK293 [14],> 59.6 µM (inactive)
O=C(c1cccc(F)c1)N1CCC2(CCN(Cc3cc(C(F)(F)F)cc(C(F)(F)F)c3)CC2)CC1,AC50,Cytochrome P450 3A4 [1],inconclusive
COc1ccc(CC(=O)Oc2ccc(F)c(F)c2)cc1S(=O)(=O)N1CCOCC1,IC50,Melanocortin receptor 4,> 64.6 µM (inactive)
same,IC50,[15],> 64.6 µM (inactive)
COc1ccccc1NS(=O)(=O)c1cc(NC(=O)c2cc3ccccc3oc2=O)ccc1C,EC50,"Troponin, cardiac muscle",> 71.5 µM (inactive)
O=C(C1=C(O)C(=O)N(CCN2CCOCC2)C1c1ccc([N+](=O)[O-])cc1)c1cccs1 (configuration not stated),EC50,"Troponin, cardiac muscle",> 71.4 µM (inactive)
O=C(/C=C/c1cccc(O)c1)c1ccc(N2CCOCC2)cc1,EC50,H4,> 120 µM (not active)
same,EC50,[16],12.3 µM (active)
same,CC50,Vero,12.7 µM (active)
same,EC50,[17],> 120 µM (not active)
c1ccc(Cc2nnc(-c3ccccc3)o2)cc1,CC50,[18],> 40 µM (active)
same,EC50,cells [19],56.3 µM (active)
same,EC50,cells [20],> 350 µM (not active)
same,CC50,Vero,16.3 µM (active)
same,IC50,[21],3.3 µM (active)
